{"source": "patent US8716284B2", "about": "“Adamantyl diamide derivatives and uses of same” (H. Lundbeck A/S, priority 2008, dated 2014)", "data": [{"molecular_target": "T1, rat metabotropic glutamate receptor 5 (mGluR5) (Rattus norvegicus, UniProt P31424)", "T1 construct": "expressed in transfected cells; host or cells: HEK 293", "T1 sequence (P31424 21-1171 isoform P31424-2 limits assumed)": "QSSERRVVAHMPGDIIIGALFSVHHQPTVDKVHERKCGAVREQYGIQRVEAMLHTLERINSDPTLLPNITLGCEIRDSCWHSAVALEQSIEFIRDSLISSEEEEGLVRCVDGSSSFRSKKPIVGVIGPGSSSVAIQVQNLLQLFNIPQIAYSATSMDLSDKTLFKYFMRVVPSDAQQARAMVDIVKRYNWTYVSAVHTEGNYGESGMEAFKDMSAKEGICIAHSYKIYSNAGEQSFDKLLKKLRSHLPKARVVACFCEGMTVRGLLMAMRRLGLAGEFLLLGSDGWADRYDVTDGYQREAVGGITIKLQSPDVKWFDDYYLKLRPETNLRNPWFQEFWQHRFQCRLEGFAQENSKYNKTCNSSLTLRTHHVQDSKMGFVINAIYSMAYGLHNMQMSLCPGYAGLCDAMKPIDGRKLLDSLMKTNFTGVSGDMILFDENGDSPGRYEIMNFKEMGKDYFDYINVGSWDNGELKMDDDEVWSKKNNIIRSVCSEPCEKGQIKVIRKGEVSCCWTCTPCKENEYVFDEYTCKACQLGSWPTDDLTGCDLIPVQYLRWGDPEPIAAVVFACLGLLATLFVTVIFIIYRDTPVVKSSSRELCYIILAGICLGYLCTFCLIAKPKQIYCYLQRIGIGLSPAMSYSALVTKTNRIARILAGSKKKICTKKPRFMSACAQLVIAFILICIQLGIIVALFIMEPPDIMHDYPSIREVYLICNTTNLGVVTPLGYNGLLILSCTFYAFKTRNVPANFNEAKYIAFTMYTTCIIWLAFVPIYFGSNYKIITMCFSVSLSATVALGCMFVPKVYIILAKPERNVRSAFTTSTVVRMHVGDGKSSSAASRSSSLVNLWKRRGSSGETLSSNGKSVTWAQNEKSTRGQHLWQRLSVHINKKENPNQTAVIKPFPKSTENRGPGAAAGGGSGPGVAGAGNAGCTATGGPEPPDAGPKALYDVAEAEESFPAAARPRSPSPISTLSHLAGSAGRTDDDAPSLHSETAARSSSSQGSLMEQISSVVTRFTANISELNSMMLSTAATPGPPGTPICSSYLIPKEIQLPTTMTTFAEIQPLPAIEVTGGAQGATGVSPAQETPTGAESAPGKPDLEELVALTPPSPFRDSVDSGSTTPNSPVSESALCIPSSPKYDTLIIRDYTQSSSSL", "assay": "Calcium mobilization assay (FLIPR) for negative or positive allosteric activity, HEK 293 cells", "assay_type": "cell-based", "conditions": "HEK293, negative allosteric modulation, inhibition of EC80 glutamate response; read-out: FLIPR maximum inhibition", "description": "The cDNA for rat metabotropic glutamate receptor 5 (mGluR5) was a generous gift from S. Nakanishi (Kyoto University, Kyoto, Japan). The mGluR5 was stably expressed in a HEK 293 cell line and grown in Dulbecco's Modified Eagle Medium (DMEM) (Invitrogen, Carlsbad, Calif.) with supplements (10% bovine calf serum, 4 mM glutamine, 100 units/mL penicillin, 100 μg/mL streptomycin and 0.75 mM G1418) at 37° C., 5% CO2. Twenty-four hours prior to assay, cells were seeded into 384-well black wall microtiter plates coated with poly-D-lysine. Just prior to assay, media was aspirated and cells dye-loaded (25 μL/well) with 3 μM Fluo-4/0.01% pluronic acid in assay buffer (Hank's Balanced Saline Solution (HBSS)): 150 mM NaCl, 5 mM KCl, 1 mM CaCl2, 1 mM MgCl2, plus 20 mM N-2-Hydroxyethylpiperazine-N′-2-ethanesulfonic acid (HEPES), pH 7.4, 0.1% bovine serum albumin (BSA) and 2.5 mM probenicid) for 1 hour in 5% CO2 at 37° C. After excess dye was discarded, cells were washed in assay buffer and layered with a final volume equal to 30 μL/well. Basal fluorescence is monitored in a fluorometric imaging plate reader (FLIPR) (Molecular Devices, Sunnyvale, Calif.) with an excitation wavelength of 488 nm and an emission range of 500 to 560 nm. Laser excitation energy was adjusted so that basal fluorescence readings were approximately 10,000 relative fluorescent units. Cells were stimulated with an EC20 or an EC80 concentration of glutamate in the presence of a compound to be tested, both diluted in assay buffer, and relative fluorescent units were measured at defined intervals (exposure=0.6 sec) over a 3 min period at room temperature. Basal readings derived from negative controls were subtracted from all samples. Maximum change in fluorescence was calculated for each well. Concentration-response curves derived from the maximum change in fluorescence were analyzed by nonlinear regression (Hill equation). A negative modulator can be identified from these concentration-response curves if a compound produces a concentration dependent inhibition of the EC80 glutamate response. […] Examples 11-163 also were tested in the above assay.\nA positive modulator can be identified from these concentration-response curves if a compound produces a concentration dependent increase in the EC20 glutamate response.", "units": {"Emax": "%"}, "values": [{"smiles": "Cc1cc(F)cc(C(=O)NC23CC4CC(C2)CC(NC(=O)c2cncc(C)n2)(C4)C3)c1", "note": "[Example 158, 6-Methyl-pyrazine-2-carboxylic acid [3-(3-fluoro-5-methyl-benzoylamino)-adamantan-1-yl]-amide]", "Emax": "70 to 99"}, {"smiles": "Cc1cncc(C(=O)NC23CC4CC(C2)CC(NC(=O)c2csc(C)n2)(C4)C3)n1", "note": "[Example 157, 6-Methyl-pyrazine-2-carboxylic acid {3-[(2-methyl-thiazole-4-carbonyl)-amino]-adamantan-1-yl}-amide]", "Emax": "70 to 99"}, {"smiles": "O=C(NC12CC3CC(C1)CC(NC(=O)c1ccccn1)(C3)C2)c1cccc(Cl)c1", "note": "[Example 6, Pyridine-2-carboxylic acid [3-(3-chloro-benzoylamino)-adamantan-1-yl]-amide]", "Emax": "90 to 99"}, {"smiles": "O=C(NC12CC3CC(C1)CC(NC(=O)c1cccc(N4CCC(O)C4)n1)(C3)C2)c1ccccn1", "note": "(stereo not drawn) [Example 201, 6-(3-Hydroxy-pyrrolidin-1-yl)-pyridine-2-carboxylic acid {3-[(pyridine-2-carbonyl)-amino]-adamantan-1-yl}-amide]", "Emax": "63 to 99"}, {"smiles": "O=C(NC12CC3CC(C1)CC(NC(=O)c1ccccn1)(C3)C2)c1cccc(F)c1", "note": "[Example 59, Pyridine-2-carboxylic acid [3-(3-fluoro-benzoylamino)-adamantan-1-yl]-amide]", "Emax": "63 to 99"}, {"smiles": "Cc1ccc2nc(C(=O)NC34CC5CC(CC(NC(=O)c6ccccn6)(C5)C3)C4)cn2c1", "note": "[Example 90, 6-Methyl-imidazo[1,2-a]pyridine-2-carboxylic acid {3-[(pyridine-2-carbonyl)-amino]-adamantan-1-yl}-amide]", "Emax": "63 to 99"}, {"smiles": "Cc1cccc(C(=O)NC23CC4CC(C2)CC(NC(=O)c2csc(C)n2)(C4)C3)n1", "note": "[Example 136, 6-Methyl-pyridine-2-carboxylic acid {3-[(2-methyl-thiazole-4-carbonyl)-amino]-adamantan-1-yl}-amide]", "Emax": "70 to 99"}, {"smiles": "CN(C)CCCNc1cccc(C(=O)NC23CC4CC(CC(NC(=O)c5cccc(F)c5)(C4)C2)C3)n1", "note": "[Example 247, 6-(3-Dimethylamino-propylamino)-pyridine-2-carboxylic acid [3-(3-fluoro-benzoylamino)-adamantan-1-yl]-amide]", "Emax": "63 to 99"}, {"smiles": "Cc1cccc(C(=O)NC23CC4CC(C2)CC(NC(=O)c2scc5c2OCCO5)(C4)C3)n1", "note": "[Example 38, 6-Methyl-pyridine-2-carboxylic acid {3-[(2,3-dihydro-thieno[3,4-b][1,4]dioxine-5-carbonyl)-amino]-adamantan-1-yl}-amide]", "Emax": "63 to 99"}, {"smiles": "O=C(NC12CC3CC(C1)CC(NC(=O)c1cccc(N4CCOCC4)n1)(C3)C2)c1ccccn1", "note": "[Example 197, 6-Morpholin-4-yl-pyridine-2-carboxylic acid {3-[(pyridine-2-carbonyl)-amino]-adamantan-1-yl}-amide]", "Emax": "63 to 99"}, {"smiles": "Cc1cccc(C(=O)NC23CC4CC(C2)CC(NC(=O)c2ccc5cccnc5n2)(C4)C3)n1", "note": "[Example 27, [1,8]Naphthyridine-2-carboxylic acid {3-[(6-methyl-pyridine-2-carbonyl)-amino]-adamantan-1-yl}-amide]", "Emax": "63 to 99"}, {"smiles": "Cc1cncc(C(=O)NC23CC4CC(C2)CC(NC(=O)c2ncccc2C)(C4)C3)n1", "note": "[Example 168, 6-Methyl-pyrazine-2-carboxylic acid {3-[(3-methyl-pyridine-2-carbonyl)-amino]-adamantan-1-yl}-amide]", "Emax": "63 to 99"}, {"smiles": "Cc1cncc(C(=O)NC23CC4CC(CC(NC(=O)c5ccc6ocnc6c5)(C4)C2)C3)n1", "note": "[Example 175, Benzoxazole-5-carboxylic acid {3-[(6-methyl-pyrazine-2-carbonyl)-amino]-adamantan-1-yl}-amide]", "Emax": "63 to 99"}, {"smiles": "Cc1cccc(C(=O)NC23CC4CC(C2)CC(NC(=O)c2cc(C)nc(C)n2)(C4)C3)n1", "note": "[Example 118, 2,6-Dimethyl-pyrimidine-4-carboxylic acid {3-[(6-methyl-pyridine-2-carbonyl)-amino]-adamantan-1-yl}-amide]", "Emax": "70 to 99"}, {"smiles": "Cc1cccc(C(=O)NC23CC4CC(C2)CC(NC(=O)c2cccc(N5CCC[C@H]5CO)n2)(C4)C3)n1", "note": "[Example 237, 6-((S)-2-Hydroxymethyl-pyrrolidin-1-yl)-pyridine-2-carboxylic acid {3-[(6-methyl-pyridine-2-carbonyl)-amino]-adamantan-1-yl}-amide]", "Emax": "63 to 99"}, {"smiles": "NC(=O)CCNc1cccc(C(=O)NC23CC4CC(CC(NC(=O)c5cccc(F)c5)(C4)C2)C3)n1", "note": "[Example 252, 6-(2-Carbamoyl-ethylamino)-pyridine-2-carboxylic acid [3-(3-fluoro-benzoylamino)-adamantan-1-yl]-amide]", "Emax": "63 to 99"}, {"smiles": "O=C(NC12CC3CC(C1)CC(NC(=O)C1CCCCC1)(C3)C2)c1ccccn1", "note": "[Example 84, Pyridine-2-carboxylic acid [3-(cyclohexanecarbonyl-amino)-adamantan-1-yl]-amide]", "Emax": "63 to 99"}, {"smiles": "Cc1cccc(C(=O)NC23CC4CC(C2)CC(NC(=O)c2cccc(F)n2)(C4)C3)n1", "note": "[Example 135, 6-Methyl-pyridine-2-carboxylic acid {3-[(6-fluoro-pyridine-2-carbonyl)-amino]-adamantan-1-yl}-amide]", "Emax": "70 to 99"}, {"smiles": "Cc1cccc2nc(C(=O)NC34CC5CC(CC(NC(=O)c6ccccn6)(C5)C3)C4)cn12", "note": "[Example 92, 5-Methyl-imidazo[1,2-a]pyridine-2-carboxylic acid {3-[(pyridine-2-carbonyl)-amino]-adamantan-1-yl}-amide]", "Emax": "63 to 99"}, {"smiles": "Cc1cccc(C(=O)NC23CC4CC(C2)CC(NC(=O)c2cccc(C(F)(F)F)n2)(C4)C3)n1", "note": "[Example 23, 6-Trifluoromethyl-pyridine-2-carboxylic acid {3-[(6-methyl-pyridine-2-carbonyl)-amino]-adamantan-1-yl}-amide]", "Emax": "63 to 99"}, {"smiles": "Cc1cc(C(=O)NC23CC4CC(CC(NC(=O)c5ccccn5)(C4)C2)C3)nc(C)n1", "note": "[Example 106, 2,6-Dimethyl-pyrimidine-4-carboxylic acid {3-[(pyridine-2-carbonyl)-amino]-adamantan-1-yl}-amide]", "Emax": "70 to 99"}, {"smiles": "Cc1cccc(C(=O)NC23CC4CC(C2)CC(NC(=O)c2cccc(C(N)=O)n2)(C4)C3)n1", "note": "[Example 133, Pyridine-2,6-dicarboxylic acid 2-amide 6-({3-[(6-methyl-pyridine-2-carbonyl)-amino]-adamantan-1-yl}-amide)]", "Emax": "70 to 99"}, {"smiles": "O=C(NC12CC3CC(C1)CC(NC(=O)c1ccc4[nH]ccc4n1)(C3)C2)c1ccccn1", "note": "[Example 66, 1H-Pyrrolo[3,2-b]pyridine-5-carboxylic acid {3-[(pyridine-2-carbonyl)-amino]-adamantan-1-yl}-amide]", "Emax": "63 to 99"}, {"smiles": "CNC(=O)c1cccc(C(=O)NC23CC4CC(CC(NC(=O)c5ccccn5)(C4)C2)C3)n1", "note": "[Example 64, Pyridine-2,6-dicarboxylic acid 2-methylamide 6-({3-[(pyridine-2-carbonyl)-amino]-adamantan-1-yl}-amide)]", "Emax": "63 to 99"}, {"smiles": "Cc1cncc(C(=O)NC23CC4CC(CC(NC(=O)c5ccc(F)cc5)(C4)C2)C3)n1", "note": "[Example 177, 6-Methyl-pyrazine-2-carboxylic acid [3-(4-fluoro-benzoylamino)-adamantan-1-yl]-amide]", "Emax": "63 to 99"}, {"smiles": "CN(C)CCCNc1cccc(C(=O)NC23CC4CC(CC(NC(=O)c5ccccn5)(C4)C2)C3)n1", "note": "[Example 226, 6-(3-Dimethylamino-propylamino)-pyridine-2-carboxylic acid {3-[(pyridine-2-carbonyl)-amino]-adamantan-1-yl}-amide]", "Emax": "63 to 99"}, {"smiles": "O=C(NC12CC3CC(C1)CC(NC(=O)c1cccc(N4CCC(O)CC4)n1)(C3)C2)c1ccccn1", "note": "[Example 200, 4-Hydroxy-3,4,5,6-ttrahydro-2H-[1,2′]bipyridinyl-6′-carboxylic acid {3-[(pyridine-2-carbonyl)-amino]-adamantan-1-yl}-amide]", "Emax": "63 to 99"}, {"smiles": "Cc1cncc(C(=O)NC23CC4CC(CC(NC(=O)c5cc(F)cc(Cl)c5)(C4)C2)C3)n1", "note": "[Example 163, 6-Methyl-pyrazine-2-carboxylic acid [3-(3-chloro-5-fluoro-benzoylamino)-adamantan-1-yl]-amide]", "Emax": "70 to 99"}, {"smiles": "CN(C)CCCN(C)c1cccc(C(=O)NC23CC4CC(CC(NC(=O)c5ccccn5)(C4)C2)C3)n1", "note": "[Example 221, 6-[(3-Dimethylamino-propyl)-methyl-amino]-pyridine-2-carboxylic acid {3-[(pyridine-2-carbonyl)-amino]-adamantan-1-yl}-amide]", "Emax": "63 to 99"}, {"smiles": "COCCNc1cccc(C(=O)NC23CC4CC(CC(NC(=O)c5ccccn5)(C4)C2)C3)n1", "note": "[Example 224, 6-(2-Methoxy-ethylamino)-pyridine-2-carboxylic acid {3-[(pyridine-2-carbonyl)-amino]-adamantan-1-yl}-amide]", "Emax": "63 to 99"}]}]}
